Results from the NIST ThermoML archive (doi:10.1021/je060457+).

Test: xn = mol fraction of the nth substance listed
Settings: 101 kPa, Liquid; for viscosity: Capillary tube (Ostwald / Ubbelohde) method; for mass density: Vibrating tube method

CNCCO [2-(methylamino)ethanol] + O
Settings	mass density [kg/m3]	viscosity [mPa·s]
298.15 K, x1 = 0.0493	–	1.801
298.15 K, x1 = 0.0499	996.45	–
298.15 K, x1 = 0.0657	996.78	2.258
298.15 K, x1 = 0.1054	997.9	3.804
298.15 K, x1 = 0.1987	996.03	8.788
298.15 K, x1 = 0.2946	–	13.51
298.15 K, x1 = 0.301	988.25	–
298.15 K, x1 = 0.3834	980.24	–
298.15 K, x1 = 0.388	–	18.21
298.15 K, x1 = 0.5041	968.81	19.98
298.15 K, x1 = 0.6	960.3	19.11
298.15 K, x1 = 0.6974	953.64	–
298.15 K, x1 = 0.7003	–	17.02
298.15 K, x1 = 0.8009	946.63	–
298.15 K, x1 = 0.8019	–	14.38
298.15 K, x1 = 0.898	–	12.46
298.15 K, x1 = 0.9031	940.86	–
298.15 K, x1 = 1	936.18	10.51
303.15 K, x1 = 0.0493	–	1.556
303.15 K, x1 = 0.0499	994.49	–
303.15 K, x1 = 0.0657	994.58	1.927
303.15 K, x1 = 0.1054	995.16	3.169
303.15 K, x1 = 0.1987	992.48	6.987
303.15 K, x1 = 0.2946	–	10.53
303.15 K, x1 = 0.301	984.47	–
303.15 K, x1 = 0.3834	976.43	–
303.15 K, x1 = 0.388	–	14.11
303.15 K, x1 = 0.5041	965	15.44
303.15 K, x1 = 0.6	956.5	15.05
303.15 K, x1 = 0.6974	949.81	–
303.15 K, x1 = 0.7003	–	13.42
303.15 K, x1 = 0.8009	942.76	–
303.15 K, x1 = 0.8019	–	11.43
303.15 K, x1 = 0.898	–	10
303.15 K, x1 = 0.9031	936.96	–
303.15 K, x1 = 1	932.26	8.522
313.15 K, x1 = 0.0493	–	1.195
313.15 K, x1 = 0.0499	990.11	–
313.15 K, x1 = 0.0657	989.79	1.45
313.15 K, x1 = 0.1054	989.39	2.272
313.15 K, x1 = 0.1987	985.28	4.622
313.15 K, x1 = 0.2946	–	6.748
313.15 K, x1 = 0.301	976.815	–
313.15 K, x1 = 0.3834	968.73	–
313.15 K, x1 = 0.388	–	8.852
313.15 K, x1 = 0.5041	957.32	9.719
313.15 K, x1 = 0.6	948.83	9.424
313.15 K, x1 = 0.6974	942.12	–
313.15 K, x1 = 0.7003	–	8.652
313.15 K, x1 = 0.8009	935.01	–
313.15 K, x1 = 0.8019	–	7.547
313.15 K, x1 = 0.898	–	6.716
313.15 K, x1 = 0.9031	929.16	–
313.15 K, x1 = 1	924.42	5.833
323.15 K, x1 = 0.0493	–	0.9978
323.15 K, x1 = 0.0499	985.07	–
323.15 K, x1 = 0.0657	984.41	1.133
323.15 K, x1 = 0.1054	983.17	1.643
323.15 K, x1 = 0.1987	977.79	3.242
323.15 K, x1 = 0.2946	–	4.581
323.15 K, x1 = 0.301	968.97	–
323.15 K, x1 = 0.3834	960.83	–
323.15 K, x1 = 0.388	–	5.886
323.15 K, x1 = 0.5041	949.46	6.458
323.15 K, x1 = 0.6	940.99	6.319
323.15 K, x1 = 0.6974	934.27	–
323.15 K, x1 = 0.7003	–	5.881
323.15 K, x1 = 0.8009	927.12	–
323.15 K, x1 = 0.8019	–	5.229
323.15 K, x1 = 0.898	–	4.725
323.15 K, x1 = 0.9031	921.24	–
323.15 K, x1 = 1	916.48	4.177
333.15 K, x1 = 0.0493	–	0.817
333.15 K, x1 = 0.0499	979.47	–
333.15 K, x1 = 0.0657	978.52	0.9621
333.15 K, x1 = 0.1054	976.55	–
333.15 K, x1 = 0.1987	970.11	2.379
333.15 K, x1 = 0.2946	–	3.261
333.15 K, x1 = 0.301	960.9	–
333.15 K, x1 = 0.3834	952.72	–
333.15 K, x1 = 0.388	–	4.107
333.15 K, x1 = 0.5041	941.41	4.499
333.15 K, x1 = 0.6	932.98	4.429
333.15 K, x1 = 0.6974	926.28	–
333.15 K, x1 = 0.7003	–	4.177
333.15 K, x1 = 0.8009	919.16	–
333.15 K, x1 = 0.8019	–	3.78
333.15 K, x1 = 0.898	–	3.463
333.15 K, x1 = 0.9031	913.22	–
333.15 K, x1 = 1	908.46	3.108
343.15 K, x1 = 0.0493	–	0.6997
343.15 K, x1 = 0.0499	973.37	–
343.15 K, x1 = 0.0657	972.17	0.7903
343.15 K, x1 = 0.1054	969.57	1.023
343.15 K, x1 = 0.1987	962.17	1.747
343.15 K, x1 = 0.2946	–	2.416
343.15 K, x1 = 0.301	952.65	–
343.15 K, x1 = 0.3834	944.43	–
343.15 K, x1 = 0.388	–	2.986
343.15 K, x1 = 0.5041	933.17	3.255
343.15 K, x1 = 0.6	924.8	3.227
343.15 K, x1 = 0.6974	918.16	–
343.15 K, x1 = 0.7003	–	3.075
343.15 K, x1 = 0.8009	911	–
343.15 K, x1 = 0.8019	–	2.827
343.15 K, x1 = 0.898	–	2.618
343.15 K, x1 = 0.9031	905.06	–
343.15 K, x1 = 1	900.3	2.385
